Measurements reported in patent US20040247525A1, “Brain progenitor cell-based assay, and related methods and compositions” (priority 2003, published 2004).
“Also recorded” adds a separate entry of the source. Like-named read-outs stand apart in the source and are kept apart here.

Legend:
[1] = test system: 5-HT1A receptor knockout (KO) mice; experiment: Novelty-suppressed feeding test (NSF) in 5-HT1A knockout mice; assay type: in vivo, mouse
Experimental: The Novelty-suppressed feeding test was carried out during a 5-min period as previously described (Santarelli et al., 2001). Briefly, the testing apparatus consisted of a plastic box, 50×50×20 cm. The floor was covered with approximately 2 cm of wooden bedding. Twenty-four hours prior to behavioral testing, all food was removed from the home cage. At the time of testing, a single pellet of food (regular chow) was placed on a white paper platform positioned in the center of the box. An animal was placed in a corner of the maze and a stopwatch was immediately started. The measure of interest (chewing) was scored when the mouse was sitting on its haunches and biting with the use of forepaws. Immediately after this test, mice were transferred to their home cage and the amount of food consumed in 5 min was measured (home cage food consumption). In knockout experiments, mice were genotyped after behavioral testing to remove the possibility of investigator bias. Mice were always tested during the light period.
Among the 14 known 5-HT receptor subtypes, the 5-HT1A receptor has been most consistently implicated in the modulation of mood and anxiety-related behaviors (Gross et al., 2000; Sargent et al., 2000). To determine whether this receptor is required to mediate the effects of serotonin- and noradrenaline-enhancing ADs, we compared the effects of these drugs in wild type (WT) mice and in mice lacking the 5-HT1A receptor (5-HT1A receptor knockout (KO) mice). WT and KO mice were treated with fluoxetine, imipramine, desipramine, or vehicle for a period of 28 days before being tested in the NSF paradigm.

[2] = test system: BrdU-positive cells in the dentate gyrus of 5-HT1A receptor KO mice; experiment: BrdU labeling of cell proliferation in the dentate gyrus of 5-HT1A knockout mice; conditions: for BrdU-labeled cells in the SGZ (cell proliferation): 8-OH-DPAT chronic (28 days, 1 mg/kg/day mini pumps), vs sham, 1 mg/kg/day; for BrdU-positive cells surviving 28 days after BrdU injection: 5-HT1A KO mice, chronic treatment, sacrificed 28 days after BrdU
Experimental: Knockout and wild-type 129/SvEv age-matched adult male mice (12-20 weeks) derived from heterozygote crossings (Phillips et al., 1999) were used in all experiments that included 5-HT1A knockout mice. […] Mice were housed 4-5 per cage in a 12-h (06:00-18:00) light-dark colony room at 22° C. with freely available food and water.
To assess the effect of antidepressant or X-irradiation treatments on the number of BrdU-positive cells, mice were administered BrdU (4×75 mg/kg i.p., dissolved in saline, every 2 hr; Roche Diagnostic, Indianapolis, Ind.) and sacrificed 24 hr after the last BrdU injection (FIG. 2A, 3B, 5C-D). To determine cell survival and phenotype after the various antidepressant treatments, fluoxetine, imipramine and vehicle-treated mice were allowed to survive for 28 days after the last BrdU injection (FIG. 2C-D, 3C). After deep anesthesia with a mixture of ketamine/xylazine (100 mg/kg and 7 mg/kg respectively),, mice were transcardially perfused (cold saline for 2 min, followed by 4% cold paraformaldehyde/0.1 M phosphate buffer for 5 min) and brains were collected for immunohistochemistry. All brains were post-fixed overnight in 4% paraformaldehyde at 4° C., then cryoprotected in 30% sucrose and stored at 4° C. Serial sections of the brains were cut (35 μm sections) through the entire hippocampus (plates 41-61; Franklin and Paxinos, 1997) on a cryostat and stored in PBS with 0.1% NaN3. For DAB staining, sections were slide-mounted and boiled in citric acid, pH 6.0, for 5 min, rinsed with PBS, and treated with 0.01% trypsin in Tris/CaC12 for 10 min. Brain sections were incubated for 30 min with 2N HCl and blocked with 5% NGS (Jackson ImmunoResearch, West Grove, Pa.). Sections were then incubated over night at room temperature with anti-mouse BrdU (1:100; Becton-Dickinson). After washing with PBS, sections were incubated for 1 hr with secondary antibody (1:200 biotinylated goat anti-mouse; Sigma-Aldrich, St. Louis, Mo.) followed by amplification with an avidin-biotin complex (Vector Laboratories). The staining was visualized with DAB (Sigma-Aldrich, St. Louis, Mo.). For fluorescent double-labeling, the DNA-denaturation procedure consisted of the following steps: 2 hr incubation in 50% formamide-2×SSC at 65° C., 5 min rinse in 2×SSC, 30 min incubation in 2N HCl at 37° C., and 10 min rinse in 0.1 M boric acid, pH 8.5. Sections were then incubated in TBS-0.1% Triton X-100 (Tx)-5% normal donkey serum (NDS) for 30 min, followed by anti-rat BrdU primary antibody (1:100; Accurate Westbury, N.Y. or Serotec, Oxford, UK) in TBS/NDS/Tx for 24 hrs at 4° C. in combination with either a mouse monoclonal antibody to NeuN (1:500; Chemicon, Temecula, Calif.) or a rabbit polyclonal antibody to GFAP (1:800; DAKO, Carpinteria, Calif.). The fluorescent secondary antibodies used were biotin-conjugated donkey anti-rat (1:200) plus streptavidin Cy2 (1:200), donkey anti-mouse. Cy3 (1:500), or donkey anti-rabbit Cy3 (1:500) (Jackson ImmunoResearch, West Grove, Pa.). Fluorescent images were taken with a Bio-Rad MRC 1000 confocal laser scanning system coupled to a Zeiss Axiovert 100 inverted microscope. For each image acquisition, a Kalman average of five frames was used. For quantification of BrdU/NeuN or BrdU/GFAP double-labeled cells, at least 50 BrdU-positive cells per animal were analyzed using Z-plane sectioning (1 μm steps).
In this set of experiments, wild type and 5-HT1A receptor KO mice were injected with BrdU following 27 days of treatment with fluoxetine, imipramine, or vehicle. To assess the effect of AD treatment on cell proliferation, one group of mice was sacrificed 24 hours after BrdU injection and sections containing the dentate gyrus were analyzed by immunohistochemistry.

[3] = test system: BrdU-positive cells in the dentate gyrus; experiment: BrdU labeling of cell proliferation and neurogenesis in the dentate gyrus; assay type: in vivo, mouse; conditions: for BrdU-labeled cells in the SGZ (cell proliferation): 8-OH-DPAT chronic (28 days, 1 mg/kg/day mini pumps), WT (+/+) mice, vs sham, 1 mg/kg/day; for BrdU-positive cells surviving 28 days after BrdU injection: wild type mice, chronic treatment, sacrificed 28 days after BrdU
129/SvEv mice = experiment: Novelty-suppressed feeding test (NSF); assay type: in vivo, mouse
Experimental: Haloperidol, an antipsychotic that antagonizes D2 dopamine receptors, was used as a negative control because it is devoid of antidepressant activity in humans. NSF performance was assessed after either 5 or 28 days of oral drug administration.

[4] = mouse, in vivo, po
Experimental: Fluoxetine (Eli Lilly, Indianapolis, Ind.), Imipramine (Sigma-Aldrich, St. Louis, Mo.), Desipramine (Sigma-Aldrich, St. Louis, Mo.) and Haloperidol (Sigma-Aldrich, St. Louis, Mo.) were dissolved in tap water at a concentration of 80, 160, 160, and 8 mg/L, respectively. These concentration were established based on the average drinking amount and average weight of the mice used in the study to achieve a final dose of 10 (fluoxetine), 20 (imipramine and desipramine) and 1 (haloperidol) mg/kg/day. […] Vehicle animals received tap water. 8-hydroxy-2-(di-n-propylamino) tetralin (8-OH-DPAT, Sigma-Aldrich, St. Louis, Mo.) was dissolved in sterile saline (0.9% NaCl) at a concentration of 4.5 mg/ml, and delivered through Alzet osmotic mini-pumps (model 2004, Alzet, Cupertino, Calif.) implanted subcutaneously 28 days prior to behavioral testing. The final average dose delivered was 1 mg/kg/day. Sham mice were implanted with mini-pumps containing sterile saline.

[5] = test system: dentate gyrus (DG) of the rat hippocampus; conditions: Malberg et al., 2000; cited from earlier work
BALB/c mice = experiment: Chronic unpredictable stress paradigm (CUS); assay type: in vivo, mouse; conditions: for state of the coat (fur) in CUS: fluoxetine 10 mg/kg/day i.p. from week 3, end of fifth week; for weight loss induced by stress in CUS / grooming latency in CUS: fluoxetine 10 mg/kg/day i.p.; for weight loss induced by stress in CUS: data not shown; for grooming latency in CUS: sixth week, after sucrose solution
Experimental: The stress regimen used is a variant of the chronic mild stress procedures described by Willner et al. (Willner et al., 1992). Mice were subjected to various and repeated unpredictable stressors for a period of five weeks (Griebel et al., 2002). The different stressors used were: alterations of the bedding (repeated sawdust changing, removal of sawdust, damp sawdust, substitution of sawdust with 37° C. water); cage tilting (45°); predator sounds (15 min.); cage shift (mice were positioned in the empty cage of another male); light to dark or dark to light shifts (four light/dark successions of 30 min every 24 hours); reversal of the light/dark cycle. The fluoxetine treatment (10 mg/kg/day, i.p.) started at the beginning of the third week. The state of the coat was assessed at the end of the stress regimen (end of fifth week). The total score resulted from the sum of the score of seven different body parts: head, neck, dorsal coat, ventral coat, tail, forepaws and the hindpaws. A score of 0 was given for a well-groomed coat and 1 for a spoiled coat (see Griebel, 2002). The grooming latency was assessed at the end of the sixth week. This test consisted in squirting 200 μl of a 10% sucrose solution on the mouse's snout. The latency to start grooming was then recorded.
The CUS protocol consists of the sequential application of a number of stressors, presented in a varied and unpredictable manner during 5 weeks. The continued application of these stressors produces a deterioration in the state of the coat, an impaired grooming response, and weight loss (Griebel et al., 2002; Willner et al., 1992). ADs such as fluoxetine can reverse these stress-induced effects after chronic, but not acute, administration (Griebel et al., 2002; Willner et al., 1992).
Sham and irradiated mice were subjected to five weeks of CUS, beginning two weeks after the final X-ray dose, and half of the animals in each group were administered fluoxetine (10 mg/kg/day, i.p.) from weeks 3-6. The state of each animal's fur was assessed at the end of the stress period, and assigned a score based on observations from several body regions (see methods). Fluoxetine treatment was continued for one more week, after which we measured the latency to begin grooming following application of a sucrose solution to the head of each animal.

[6] = 28 days via drinking water, 5-HT1A knockout (−/−) mice, vs vehicle
[7] = 28 days via drinking water, fluoxetine 10, imipramine 20, desipramine 20, haloperidol 1 mg/kg/day, wild-type mice, vs vehicle
[8] = 5-day treatment via drinking water, vs vehicle
[9] = 28 days, X-irradiated mice (3 x 5 Gy to hippocampus), vs vehicle
[10] = 28 days, sham (non-irradiated) mice, vs vehicle

For `CCCN(CCC)C1CCc2cccc(O)c2C1` (stereo not drawn) [8-OH-DPAT], the “latency to feed in NSF” value ([1]; 28 days, subcutaneous osmotic mini pumps, 1 mg/kg/day, 5-HT1A knockout (−/−), vs sham, 1 mg/kg/day) was “ineffective”, the “BrdU-labeled cells in the SGZ (cell proliferation)” value (shortened to “BrdU-labeled cells in the SGZ”) ([2]; 5-HT1A KO (−/−) mice) was “not observed” and the “BrdU-labeled cells in the SGZ” value ([2]; 5-HT1A KO (−/−) mice, listed as DPAT) was “not −/− mice”. The “BrdU-labeled cells in the SGZ” value [3] was “caused an increase in cell proliferation”, the “BrdU-labeled cells in the SGZ” value ([3]; listed as DPAT) was “DPAT-induced increases in BrdU-labeled cells” and the “latency to feed in NSF” value (129/SvEv mice; 28 days, subcutaneous osmotic mini pumps, 1 mg/kg/day, wild type (+/+), vs sham, 1 mg/kg/day) was “significantly decreased the latency to feed; also recorded: significant decrease in the latency to feed”.

In the case of `CNCCCN1c2ccccc2CCc2ccccc21` [desipramine, Desipramine], the “latency to feed in NSF” value [1, 6] is reported as “still responsive; also recorded: effective”, the “time by which steady serum levels had been achieved” value (shortened to “time”) ([4]; 129/SvEv) is reported as ≤ 5 days and the “latency to feed in NSF” value (129/SvEv mice; [7]) is reported as “significant decreases in the latency to feed; also recorded: significantly decreased the latency to feed”.

In the case of `CNCCC(Oc1ccc(C(F)(F)F)cc1)c1ccccc1` (stereo not drawn) [fluoxetine, Fluoxetine], the “neurogenesis in the dentate gyrus” value [5] is listed as “increase neurogenesis”, the “latency to feed in NSF” value [1, 6] is listed as “insensitive” and the “latency to feed in NSF” value ([1]; 28 days via drinking water, 5-HT1A knockout (−/−) mice, vs vehicle, listed as Fluoxetine) is listed as “only imipramine and desipramine were effective”. The “increase in BrdU-labeled cells in the dentate gyrus” value ([2]; 5-HT1A KO (−/−) mice, 27 days (4 weeks) treatment, sacrificed 24 hours after BrdU, vs vehicle) was “no effect; also recorded: effective only in +/+ mice”, the “BrdU-positive cells surviving 28 days after BrdU injection” value (“BrdU-positive cells surviving 28 days” below) ([2]; vs vehicle) was “not in KO” and the “time” value ([4]; 129/SvEv) was ≤ 5 days. For the same molecule, the “cell proliferation (BrdU)” value ([3]; chronic fluoxetine, X-irradiated animals) was “no effect”, the “cell proliferation (BrdU) in the SGZ” value ([3]; chronic fluoxetine, non-irradiated mice) was “increased cell proliferation” and the “cell proliferation (BrdU) in the SVZ” value ([3]; chronic fluoxetine, subventricular zone) was “no effect”. The “number of BrdU-positive cells in the DG” value ([3]; fluoxetine 5 days, sacrificed 24 hours after BrdU, vs vehicle) was “No significant effect”, the “increase in BrdU-labeled cells in the dentate gyrus” value ([3]; wild type (+/+) mice, 27 days (4 weeks) treatment, sacrificed 24 hours after BrdU, vs vehicle) was “two-fold increase; also recorded: effective only in +/+ mice” and the “BrdU-positive cells surviving 28 days” value ([3]; vs vehicle) was “had an effect in WT”. For the same molecule, the “latency to feed in NSF” value (129/SvEv mice; [8]) was “no effect”, the “latency to feed in NSF” value (129/SvEv mice; [7]) was “significant decreases in the latency to feed” and the “latency to feed in NSF” value (129/SvEv mice; 28 days via drinking water, fluoxetine 10, imipramine 20, desipramine 20, haloperidol 1 mg/kg/day, wild-type mice, vs vehicle, listed as Fluoxetine) was “significantly decreased the latency to feed”. For the same molecule, the “latency to feed in NSF” value (129/SvEv mice; [9]) was “no such anxiolytic-like effect”, the “latency to feed in NSF” value (129/SvEv mice; [10]) was “significant reduction in the latency to feed” and the “state of the coat (fur) in CUS” value (BALB/c mice; X-irradiated mice) was “absent; also recorded: Irradiation prevented the improvement of the state of the coat”. The “state of the coat (fur) in CUS” value (BALB/c mice; sham mice) was “significantly improved the state of the fur; also recorded: significant differences between the fluoxetine-treated sham group and all the others”, the “weight loss induced by stress in CUS” value (BALB/c mice; X-irradiated mice) was “irradiation blocked this effect” and the “grooming latency in CUS” value (BALB/c mice; X-irradiated mice) was “X-irradiation blocked this effect”. For the same molecule, the “weight loss induced by stress in CUS” value (BALB/c mice; sham mice) was “trend to reverse the weight loss” and the “grooming latency in CUS” value (BALB/c mice; sham mice) was “decreased; also recorded: decrease in the latency to groom”.

With `O=C(CCCN1CCC(O)(c2ccc(Cl)cc2)CC1)c1ccc(F)cc1` [haloperidol, Haloperidol] the “latency to feed in NSF” value (129/SvEv mice; 28 days via drinking water, fluoxetine 10, imipramine 20, desipramine 20, haloperidol 1 mg/kg/day, wild-type mice, vs vehicle, listed as Haloperidol) was “ineffective”.

For `CN(C)CCCN1c2ccccc2CCc2ccccc21` [imipramine, Imipramine], the “latency to feed in NSF” value [1, 6] was “still responsive; also recorded: effective”, the “BrdU-positive cells surviving 28 days” value ([2]; vs vehicle) was “effective in both genotypes” and the “time” value ([4]; 129/SvEv) was ≤ 5 days. The “BrdU-positive cells surviving 28 days” value ([3]; vs vehicle) was “effective in both genotypes”, the “latency to feed in NSF” value (129/SvEv mice; [8]) was “no effect” and the “latency to feed in NSF” value (129/SvEv mice; [7]) was “significant decreases in the latency to feed; also recorded: significantly decreased the latency to feed”. For the same molecule, the “latency to feed in NSF” value (129/SvEv mice; [9]) was “no such anxiolytic-like effect” and the “latency to feed in NSF” value (129/SvEv mice; [10]) was “significant reduction in the latency to feed”.

In the case of `NCCC(Oc1ccc(C(F)(F)F)cc1)c1ccccc1` (stereo not drawn) [nor- fluoxetine], the “time” value [4] is reported as ≤ 5 days.
